A value given as a limit tells only on which side of the number the result lay.

Test [1] addresses T1, Nav1.7 (Homo sapiens, UniProt Q15858). Description: Electrophysiology assay (whole cell patch clamp), affinity to inactivated state. It is filed as cell-based. The note with it: affinity to inactivated state (Kinact), read-out: activity (Ki) against Nav1.7. Set-up: expressed in transfected cells. As for the experimental part: Whole cell patch clamp recording is used to assess the efficacy or selectivity of Na (Sodium) channel blocker on human voltage gated sodium channels. Na channel expressing cells are dissociated by 0.05% Trypsin-EDTA or Accutase, and then seeded on cover glass for 2-24 hours.
Manual patch clamp recordings are conducted at rt using the voltage-clamp amplifier (Axon Instruments or HEKA electronik). Electrodes are pulled with P-97 electrode puller (Sutter Instrument). The electrode resistances are 1-3 MOhm when intercellular solution is filled. Currents are lowpass filtered between 2-5 kHz and digitally sampled at 10 kHz. […]
After whole-cell configuration is achieved, cell is monitored at least 10 minutes to allow cell dialysis with pipette solution. […]
Peak currents evoked by Test 1 and Test 2 pulses are sampled with Clampex (Axon Instruments) or Pulse+Pulse Fit (HEKA). Averaged peak currents under vehicle or test compounds are calculated from 3 data points at end of each condition.
Inhibitory effects (% inhibition) on peak currents at Test 1 or Test 2 pulse are plotted against test concentration and IC50 values at Test 1 (Closed IC50) or Test 2 (Inactivated IC50) are calculated with Hill equation, respectively. […]
After whole-cell configuration is achieved, the cell is monitored at least 10-15 minutes to allow cell dialysis with pipette solution. […]

In test [2] the target is T1, Nav1.7. Description: EFS-FRET assay. It is filed as cell-based. The arrangement: expressed in transfected cells; host or cells: CHO (Chinese hamster ovary) cells. Conditions: CHO cells expressing human Nav1.7 channels, read-out: IC50 against Nav1.7. As for the experimental part:
This screen is used to determine the effects of compounds on human Nav1.7 channels, utilizing electrical field stimulation (EFS) system in 96-well plate format on FDSS (Hamamatsu Photonics) platform. The changes of membrane potential are monitored with FRET dye pair, DiSBAC2(3) and PTS18.
CHO (Chinese hamster ovary) cells expressing human Nav1.7 channels are grown in T225 flasks, in a 5% CO2 humidified incubator to about 80% confluence. Media composition consists of HAM/F12 with Glutamax I, 10% FCS, 100 units/mF penicillin and 100 microgram/mF hygromycin.
• Seed each cell lines (1×10^5 cells/well) into 96-well plates prior to experimentation. • Incubate at 37° C. in 5% CO2 for 24 hours. • Wash each well with assay buffer (140 mM NaCl, 4.5 mM KCl, 10 mM D-Glucose, 2 mM CaCl2, 1 mM MgCl2, 10 mM HEPES, pH 7.4 adjusted with NaOH) twice. • Add 1st loading solution containing 10 microM PTS18 and 0.06% Pluronic F-127 in assay buffer. • Incubate the plate at rt in dark for 1 hour. • Remove 1st loading solution and add 2nd loading solution containing 12.5 microM DiSBAC2(3), 1.25 mM Xylene Fast Yellow and 0.0075% Pluronic F-127 in assay buffer. • Place the plate under the dark at rt for 25 minutes. • Add compound solutions into the assay plate. • Set the assay plate in FDSS and place an EFS device on the plate. • Measure EFS-induced fluorescent response by FDSS.
The data are analyzed and reported as normalized ratios of intensities measured at […]. The process of calculating these ratios is performed as follows:
This analysis is performed using a computerized specific program designed for FDSS generated data. Fluorescence ratio values are plotted using XLfit to determine an IC50 value for each compound.

T1 sequence (Q15858 whole entry): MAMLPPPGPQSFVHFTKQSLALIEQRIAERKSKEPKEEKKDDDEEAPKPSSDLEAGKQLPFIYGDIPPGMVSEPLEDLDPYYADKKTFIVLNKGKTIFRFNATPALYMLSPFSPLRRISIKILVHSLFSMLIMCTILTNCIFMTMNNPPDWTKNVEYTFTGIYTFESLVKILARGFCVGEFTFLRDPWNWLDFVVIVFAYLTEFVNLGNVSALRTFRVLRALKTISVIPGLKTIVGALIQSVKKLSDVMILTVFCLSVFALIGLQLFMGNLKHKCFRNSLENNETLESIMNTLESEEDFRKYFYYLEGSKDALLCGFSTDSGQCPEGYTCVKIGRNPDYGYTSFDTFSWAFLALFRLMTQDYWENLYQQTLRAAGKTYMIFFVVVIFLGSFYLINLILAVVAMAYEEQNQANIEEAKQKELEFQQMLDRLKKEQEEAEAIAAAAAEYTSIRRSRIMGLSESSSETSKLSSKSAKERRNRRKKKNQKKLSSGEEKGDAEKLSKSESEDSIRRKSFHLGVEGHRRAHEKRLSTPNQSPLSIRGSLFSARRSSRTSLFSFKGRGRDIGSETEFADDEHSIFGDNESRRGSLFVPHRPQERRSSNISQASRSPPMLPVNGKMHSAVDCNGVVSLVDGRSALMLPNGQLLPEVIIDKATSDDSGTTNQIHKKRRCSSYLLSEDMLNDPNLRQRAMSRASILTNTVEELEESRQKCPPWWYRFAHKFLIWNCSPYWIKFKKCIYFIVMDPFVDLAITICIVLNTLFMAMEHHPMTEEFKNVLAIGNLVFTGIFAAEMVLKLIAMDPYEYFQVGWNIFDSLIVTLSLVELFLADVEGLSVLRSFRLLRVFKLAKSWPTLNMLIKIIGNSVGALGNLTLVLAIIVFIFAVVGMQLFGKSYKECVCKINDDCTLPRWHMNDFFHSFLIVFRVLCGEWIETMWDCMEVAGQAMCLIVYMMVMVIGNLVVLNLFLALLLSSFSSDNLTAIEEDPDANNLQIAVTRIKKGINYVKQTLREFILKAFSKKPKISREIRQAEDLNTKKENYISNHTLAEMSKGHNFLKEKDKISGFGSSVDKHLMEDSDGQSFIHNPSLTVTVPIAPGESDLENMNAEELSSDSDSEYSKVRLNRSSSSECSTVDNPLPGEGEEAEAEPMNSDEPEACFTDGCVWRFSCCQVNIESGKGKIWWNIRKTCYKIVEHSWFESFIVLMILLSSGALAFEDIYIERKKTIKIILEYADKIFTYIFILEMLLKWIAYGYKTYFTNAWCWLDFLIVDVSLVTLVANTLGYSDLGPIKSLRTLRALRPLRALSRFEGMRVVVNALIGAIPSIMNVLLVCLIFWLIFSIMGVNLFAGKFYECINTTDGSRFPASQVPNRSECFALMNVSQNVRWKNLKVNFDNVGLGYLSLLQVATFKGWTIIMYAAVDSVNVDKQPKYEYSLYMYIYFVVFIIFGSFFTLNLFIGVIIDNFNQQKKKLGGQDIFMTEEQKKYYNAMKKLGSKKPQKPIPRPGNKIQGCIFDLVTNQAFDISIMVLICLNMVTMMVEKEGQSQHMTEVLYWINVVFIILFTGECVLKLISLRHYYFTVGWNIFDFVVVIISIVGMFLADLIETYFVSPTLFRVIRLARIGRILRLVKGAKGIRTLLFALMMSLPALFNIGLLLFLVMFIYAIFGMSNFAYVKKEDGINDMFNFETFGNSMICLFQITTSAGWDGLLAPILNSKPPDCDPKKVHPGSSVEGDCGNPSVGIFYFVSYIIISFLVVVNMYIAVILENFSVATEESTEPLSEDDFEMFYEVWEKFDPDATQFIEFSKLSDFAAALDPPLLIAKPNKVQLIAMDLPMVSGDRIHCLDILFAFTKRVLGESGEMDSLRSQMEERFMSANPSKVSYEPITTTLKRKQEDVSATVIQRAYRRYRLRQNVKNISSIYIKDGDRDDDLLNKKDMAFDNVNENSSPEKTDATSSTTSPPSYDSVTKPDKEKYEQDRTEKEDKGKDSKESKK

A word on the IC50: it is the point on the concentration scale where inhibition reaches its midpoint. Take `O=C(N[C@@H]1CCN(c2ncc(C(F)(F)F)cc2Cl)C1)c1ccnc(NC(=O)C2CC2)c1` [Example 9]: at Nav1.7 [1], the Ki was under 200 nM. Besides, the 50% inhibitory concentration (IC50) at Nav1.7 [2] is under 500 nM.

Regarding `O=C(N[C@@H]1CCN(c2ccc(C(F)(F)F)cc2F)C1)c1ccnc(NC(=O)C2CC2)n1` [Example 121], on Nav1.7 [2], the concentration for half-maximal inhibition (IC50) was under 500 nM.

With `CC(C)C(=O)Nc1cc(C(=O)N[C@@H]2CCN(c3ccc(C(F)(F)F)c(F)c3)C2)ccn1` [Example 123], the IC50 on Nav1.7 [2] was under 500 nM.

With `O=C(N[C@@H]1CCCN(c2ccc(OC(F)(F)F)cc2Cl)C1)c1ccnc(NC(=O)C2CC2)c1` [Example 125], the half-maximal inhibitory concentration (IC50) on Nav1.7 [2] is under 500 nM.

As for `O=C(N[C@@H]1CCCN(c2ccc(OC(F)(F)F)cc2Cl)C1)c1ccnc(NC(=O)C2CC2)n1` [Example 126], the IC50 on Nav1.7 [2] is under 500 nM.

For `CC(C)C(=O)Nc1cc(C(=O)N[C@@H]2CCCN(c3ccc(OC(F)(F)F)cc3Cl)C2)ccn1` [Example 127], at Nav1.7 [2], the concentration for half-maximal inhibition (IC50) was under 500 nM.

Take `Cc1cc(C(=O)N[C@@H]2CCCN(c3ccc(OC(F)(F)F)cc3Cl)C2)cc(NC(=O)C(C)C)n1` [Example 128]: on Nav1.7 [2], the half-maximal inhibitory concentration (IC50) was under 500 nM.

In the case of `CCC(=O)Nc1cc(C(=O)N[C@@H]2CCCN(c3ccc(OC(F)(F)F)cc3Cl)C2)ccn1` [Example 129], the IC50 at Nav1.7 [2] is under 500 nM.

As for `Cc1cc(C(=O)N[C@@H]2CCCN(c3ccc(OC(F)(F)F)cc3Cl)C2)nc(NC(=O)C2CC2)n1` [Example 132], the IC50 at Nav1.7 [2] is under 500 nM.

Values taken from patent US12110287B2, “Heterocyclic derivatives as Nav1.7 and Nav1.8 blockers” (RaQualia Pharma Inc., priority 2018, dated 2024).
